Results as given in PMC12208134, “Structure-activity relationships of 1,5-dihydro-2H-benzo[b][1,4]diazepine-2,4(3H)-diones as inhibitors of Trypanosoma cruzi” (RSC medicinal chemistry, 2025).
Converted amounts (≈) assume the structure as drawn. “And” between values parts separate entries of the source, which are not always exact repeats. Identical values can stand only once. Like-named read-outs stand apart in the source and are kept apart here.

What was measured:
Tc-CYP51 = Tc-CYP51 (Trypanosoma cruzi, UniProt Q7Z1V1); assay: T. cruzi sterol 14α-demethylase (CYP51) enzyme assay; assay type: biochemical
Sequence of Tc-CYP51 (Q7Z1V1 whole entry): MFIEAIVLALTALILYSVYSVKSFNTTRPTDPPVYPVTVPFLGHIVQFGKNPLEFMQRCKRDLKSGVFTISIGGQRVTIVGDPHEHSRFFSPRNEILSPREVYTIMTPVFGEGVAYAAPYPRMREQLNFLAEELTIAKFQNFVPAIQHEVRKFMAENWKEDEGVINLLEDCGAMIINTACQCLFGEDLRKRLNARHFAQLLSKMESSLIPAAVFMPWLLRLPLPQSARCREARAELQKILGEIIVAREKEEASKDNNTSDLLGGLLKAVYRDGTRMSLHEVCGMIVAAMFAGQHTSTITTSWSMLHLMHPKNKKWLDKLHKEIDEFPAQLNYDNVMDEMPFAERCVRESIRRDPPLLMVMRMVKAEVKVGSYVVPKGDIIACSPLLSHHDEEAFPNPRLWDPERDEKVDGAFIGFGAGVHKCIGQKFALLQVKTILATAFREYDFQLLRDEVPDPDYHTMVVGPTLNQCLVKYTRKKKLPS
Method: T. cruzi sterol 14α-demethylase (CYP51) enzyme assay
Potency against T. cruzi CYP51 was determined using a previously described fluorescence assay. Average potency for compound 1 was determined with three experimental replicates. Potencies in Fig.3 are from single experimental replicates. ^5

[1] = Mouse liver microsomal intrinsic clearance; assay type: in vitro ADME; conditions: mouse liver microsomes
[2] = Kinetic aqueous solubility by CAD; assay type: physicochemical; conditions: kinetic from dmso stock; kinetic, CAD; read-out: Aqueous solubility
[3] = tested on: intracellular T. cruzi amastigotes; assay: Rate-of-kill assay against intracellular amastigotes; assay type: cell-based, Trypanosoma cruzi
Method: T. cruzi intracellular potency and rate-of-kill assay (high content imaging) ^1
Silvio X10/7 T. cruzi trypomastigotes were incubated at 37°C 5% CO2 with 1.6×10^7 Vero cells overnight at MOI10 in MEM media supplemented with 10% foetal calf serum (FCS). Extracellular parasites were removed by aspirating cell culture supernatant, and washing Vero monolayer with 10 ml serum-free MEM three times. Vero cells were then harvested by trypsinization and dispensed at 2×10^3 per well (50 μl in MEM/ 1% FCS) into 384 well plates pre-stamped with compounds in DMSO using automated washer/ dispenser EL406 and liquid handling software (Biotek). Plates were then incubated at 37°C in 5% CO2 for 96 h. For rate-of-kill determination, plates were incubated for 24h, 48h, 72h and 96h.
Plates were subsequently fixed with 4% formaldehyde for 20 min, permeabilised and stained with 5 μgml^-1 Hoechst 33342/ 0.1% Triton/ PBS Thimerosal 20 min. […] Images were analysed with an algorithm generated in Columbus (PerkinElmer) to segment Vero cell nuclei, Vero cell cytoplasm and parasite nuclei/ kinetoplasts, reporting number of amastigotes per Vero cell, percent infected Vero cells and total number of Vero cells. Compound potencies against T. cruzi parasites were calculated in IDBS Activitybase using percent infected Vero cells and Vero toxicity curves generated using number of host cells. […]

host Vero cell = assay: Vero host cell toxicity in the intracellular T. cruzi assay; assay type: cell-based; design: key to Max Effect (Vero): % inhibition; 0% = DMSO control, 100% = 16 μM nifurtimox control
Outline: (§1)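 Silvio X10/7 trypomastigotes infected Vero cells overnight at MOI10; washed infected cells were exposed to compounds 96 h at 37°C in MEM/1% FCS. Hoechst-stained imaging scored percent infected cells (potency) and host-cell number (Vero toxicity), normalised to 16 μM nifurtimox and DMSO controls; four-parameter fit.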

T. cruzi proteasome = T. cruzi proteasome (Trypanosoma cruzi, UniProt V5BU39)
Method: T. cruzi proteasome enzyme assay
The pIC50 of compound 1 was measured in a T. cruzi proteasome assay (N = 2 experimental replicates, each with n = 3 technical replicates) as previously described, using a recombinantly expressed Δβ1Δβ2 mutant proteasome (measuring chymotrypsin site activity only). ^4

T. cruzi epimastigotes = assay: T. cruzi oxygen consumption assay; assay type: cell-based; conditions: Trypanosoma cruzi, read-out: T. cruzi oxygen consumption pIC50 (converted)
Method: T. cruzi oxygen consumption assay
Oxygen consumption was measured using T. cruzi epimastigotes and the MitoXpress Xtra Oxygen Consumption Assay (Agilent) as previously reported. ^6

T. cruzi trypomastigotes [4] = assay: T. cruzi trypomastigote assay; assay type: cell-based, Trypanosoma cruzi
Method: T. cruzi trypomastigote assay
Trypomastigote assays were carried out with T. cruzi Silvio X10/7 trypomastigotes using the protocol previously described. ^1

Tc-HisRS = Tc-HisRS (Trypanosoma cruzi, UniProt Q4DA54); assay: biochemical
Sequence of Tc-HisRS (Q4DA54 entry or part of it): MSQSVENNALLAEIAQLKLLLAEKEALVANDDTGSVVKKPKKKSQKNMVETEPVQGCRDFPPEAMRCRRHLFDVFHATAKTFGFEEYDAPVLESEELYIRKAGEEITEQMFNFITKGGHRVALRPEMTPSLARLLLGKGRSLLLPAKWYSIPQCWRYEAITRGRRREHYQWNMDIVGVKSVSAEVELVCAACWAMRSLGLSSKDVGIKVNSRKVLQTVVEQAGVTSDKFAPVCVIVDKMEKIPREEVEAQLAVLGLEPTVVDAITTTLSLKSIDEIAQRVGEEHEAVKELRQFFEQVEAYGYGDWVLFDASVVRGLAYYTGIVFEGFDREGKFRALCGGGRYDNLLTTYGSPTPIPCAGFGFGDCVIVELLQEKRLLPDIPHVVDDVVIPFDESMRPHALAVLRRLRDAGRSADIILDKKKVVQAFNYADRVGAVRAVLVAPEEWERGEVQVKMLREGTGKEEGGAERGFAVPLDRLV
Method: TcHisRS assay wells contained TcHisRS assay buffer (30 mM Tris; pH 8, 140 mM NaCl, 40 mM MgCl2, 30 mM KCl, 0.01% (v/v) Brij and 1 mM DTT) plus 50 nM TcHisRS, 8 μM ATP, 5 μM L-histidine and 1 U/mL pyrophosphatase. Assays were run for 2 hours.

Tc-MetRS = Tc-MetRS (Trypanosoma cruzi, UniProt Q4D6H2); assay: T. cruzi aminoacyl tRNA synthetase enzyme assay (TcMetRS); assay type: biochemical
Sequence of Tc-MetRS (Q4D6H2 entry or part of it): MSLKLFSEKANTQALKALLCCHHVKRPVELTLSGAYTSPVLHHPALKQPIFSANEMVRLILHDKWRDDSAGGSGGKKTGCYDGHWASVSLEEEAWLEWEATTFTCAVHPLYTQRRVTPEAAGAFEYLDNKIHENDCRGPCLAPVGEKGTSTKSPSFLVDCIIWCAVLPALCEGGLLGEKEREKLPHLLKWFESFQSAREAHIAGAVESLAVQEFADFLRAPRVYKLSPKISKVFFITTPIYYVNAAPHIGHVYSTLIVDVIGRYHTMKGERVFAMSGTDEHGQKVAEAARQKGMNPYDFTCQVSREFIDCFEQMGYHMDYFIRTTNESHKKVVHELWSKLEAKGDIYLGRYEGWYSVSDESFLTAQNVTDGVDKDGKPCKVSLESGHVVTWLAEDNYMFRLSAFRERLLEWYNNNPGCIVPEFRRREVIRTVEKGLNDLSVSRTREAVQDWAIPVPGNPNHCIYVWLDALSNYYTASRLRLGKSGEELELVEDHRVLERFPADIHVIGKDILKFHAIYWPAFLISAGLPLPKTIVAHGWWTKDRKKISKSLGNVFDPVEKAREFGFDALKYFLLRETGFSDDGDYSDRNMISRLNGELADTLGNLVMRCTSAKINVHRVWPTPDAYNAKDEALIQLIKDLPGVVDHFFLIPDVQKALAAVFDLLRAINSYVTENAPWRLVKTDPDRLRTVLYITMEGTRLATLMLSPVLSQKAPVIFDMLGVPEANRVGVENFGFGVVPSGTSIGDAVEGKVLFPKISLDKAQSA
Method: T. cruzi aminoacyl tRNA synthetase enzyme assays
Assays were run for 2 hours.

[5] = Human liver microsomal intrinsic clearance; assay type: in vitro ADME; conditions: human liver microsomes
[6] = ChromLogD pH7.4 (chromatographic hydrophobicity index), PFI, LLE
Excerpt: [23] Alongside PFI, LLE (ligand lipophilic efficiency, T. cruzi pIC50 - ChromLogDpH7.4) was also monitored to identify changes where the impact on potency was not driven by increasing lipophilicity.

[7] = tested on: intracellular T. cruzi amastigotes; assay: T. cruzi intracellular potency assay (high content imaging); assay type: cell-based, Trypanosoma cruzi; design: key to Max Effect (T. cruzi): % inhibition; 0% = DMSO control, 100% = 16 μM nifurtimox control
Outline: as §1

T. cruzi = tested on: T. cruzi; design: method as in PMID 24827034, PMID 29352704; conditions: clinical trials; cited from earlier work
intracellular T. cruzi = assay: T. cruzi washout assay; assay type: cell-based, Trypanosoma cruzi; conditions: 25 x IC50 for 16 days, infected Vero cells
Method: For any hits identified and successfully triaged, the initial focus of hit-expansion is to identify compounds with a suitable profile to run in a washout assay.,[21] In this assay, intracellular T. cruzi are treated with high doses of compounds for an extended duration (25x IC50 for 8 – 16 days), followed by compound washout and assessment of parasite relapse over 60 days to assess ability to clear all parasites, including any persisters. […] Compound series with a profile equal to or better than benznidazole can then be progressed to an in vivo efficacy model of chronic Chagas disease with a high probability of success.
At this stage, we were keen to examine our options for progression into the T. cruzi washout assay, [12],[21] and decided to move forward with 2, 14 and 16 to give coverage across both chemotypes. […] After this dosing period, the compound was washed off the infected cells, and the host cell monolayer was monitored for egressed parasites. The first day egressed parasites were detected post washout was noted down as the relapse day. In this assay, posaconazole, which is known to be ineffective in the clinic, relapsed after 10 days and benznidazole, used as the bench-mark clinical compound, relapsed after 31 / 35 days (2 replicates). We were therefore looking for compounds that relapsed at an equivalent time to benznidazole, or later, to be considered worth pursuing further.
Intracellular T. cruzi washout assays were carried out with the Silvio X10/7 strain using the protocol previously described. ^1

T. cruzi trypomastigotes [8] = tested on: T. cruzi trypomastigotes; design: method as in PMID 30001347; conditions: cited from earlier work

Question: Which IC50 (Tc-CYP51; average of three experimental replicates, read-out: Tc-CYP51 pIC50 (converted)) does the source give for `Cc1ccc(NC(=O)NC2C(=O)Nc3ccccc3N(c3ccccc3)C2=O)cc1` (stereo not drawn) [Compound 1, 1-(2,4-dioxo-1-phenyl-2,3,4,5-tetrahydro-1H-benzo[b][1,4]diazepin-3-yl)-3-(p-tolyl)urea] here?
Answer: 15.8 µM

Question: What about the “Tc CYP51 Hill” value (Tc-CYP51; individual replicate) of the same compound?
Answer: 1.3 and 1.1 and 1.4

Question: And the “Tc CYP51 Max Effect” value (Tc-CYP51; individual replicate)?
Answer: 83 and 84

Question: What about the Emax (Tc-CYP51; individual replicate, read-out: Tc CYP51 Max Effect) of the same compound?
Answer: 85%

Question: What about the IC50 (Tc-CYP51; individual replicate, read-out: Tc CYP51 pIC50 (converted)) of the same compound?
Answer: 6.31 µM and 25.1 µM

Question: And the “fold more potent against the parasites than against Tc-CYP51” value (Tc-CYP51; urea series)?
Answer: 10 fold

Question: What about the “MLM CLi” value [1] of the same compound?
Answer: 0.8 mL/min/g

Question: And the solubility [2]?
Answer: 35 µM (≈ 14 µg/mL)

Question: And the “Rate-of-Kill: cidal activity within” value [3]?
Answer: Cidal activity within 96 hours ^f

Question: What about the EC50 (host Vero cell; Chlorocebus sabaeus, Vero, individual replicate) of the same compound?
Answer: > 50.1 µM

Question: And the IC50 (host Vero cell; Chlorocebus sabaeus, host Vero cell, read-out: Vero pIC50 (converted))?
Answer: > 50.1 µM

Question: And the “Max Effect (Vero)” value (host Vero cell; individual replicate)?
Answer: 13 and 1.41 and 11 and 15 and 2.25 and -0.282

Question: And the “Tc Proteasome Hill” value (T. cruzi proteasome; individual replicate)?
Answer: 1.1 and 0.9

Question: And the “Tc Proteasome Max Effect” value (T. cruzi proteasome; individual replicate)?
Answer: 62 and 68

Question: What about the “Tc Proteasome pIC50” value (T. cruzi proteasome; individual replicate) of the same compound?
Answer: 4.0 and 4.2

Question: And the “Tc-proteasome pIC50” value (T. cruzi proteasome; Δβ1Δβ2 mutant proteasome, chymotrypsin site)?
Answer: 4.1

Question: And the IC50 (T. cruzi epimastigotes)?
Answer: > 50.1 µM

Question: And the Emax (T. cruzi trypomastigotes [4]; Trypanosoma cruzi, individual replicate, read-out: Tc-Trypo Max Effect)?
Answer: 77%

Question: What about the IC50 (T. cruzi trypomastigotes [4]; Trypanosoma cruzi, read-out: T. cruzi trypomastigote pIC50 (converted)) of the same compound?
Answer: 0.251 µM

Question: What about the “Tc-Trypo Hill” value (T. cruzi trypomastigotes [4]; individual replicate) of the same compound?
Answer: 0.9 and 1.4 and 1.2 and 1.3

Question: And the “Tc-Trypo Max Effect” value (T. cruzi trypomastigotes [4]; individual replicate)?
Answer: 79

Question: What about the “Tc-Trypo pEC50” value (T. cruzi trypomastigotes [4]; individual replicate) of the same compound?
Answer: 7.2 and 7.0 and 6.3 and 6.4

Question: And the IC50 (Tc-HisRS)?
Answer: > 100 µM

Question: And the IC50 (Tc-MetRS)?
Answer: > 100 µM

Question: And the “HLM CLi” value [5]?
Answer: <0.4 mL/min/g

Question: And the PFI ([6]; ChromLogDpH7.4 + no. aromatic rings)?
Answer: 7.6

Question: And the chromatographic logD ([6]; pH 7.4)?
Answer: 4.6

Question: And the Emax ([7]; Trypanosoma cruzi, individual replicate, read-out: Max Effect (T. cruzi))?
Answer: 84%

Question: What about the IC50 ([7]; Trypanosoma cruzi, intracellular amastigotes in Vero cells, 96 h, mean of N ≥ 3, read-out: T. cruzi pIC50 (converted)) of the same compound?
Answer: 1 µM

Question: What about the “Hill slope (T. cruzi)” value ([7]; individual replicate) of the same compound?
Answer: 2.7 and 4.5 and 6.2 and 2.8 and 1.2 and 2.0 and 4.2

Question: And the “Max Effect (T. cruzi)” value ([7]; individual replicate)?
Answer: 87 and 88 and 90 and 83

Question: What about the “pEC50 (T. cruzi)” value ([7]; individual replicate) of the same compound?
Answer: 5.8 and 6.2 and 6.1 and 6.0

Question: Which “treatment failures in patients” value (T. cruzi) does the source give for `C[C@@H](c1nc(-c2ccc(C#N)cc2)cs1)[C@@](Cn1cncn1)(OCOP(=O)(O)O)c1ccc(F)cc1F` [fosravuconazole] here?
Answer: 70 – 90%

Question: For `CC[C@@H]([C@H](C)O)n1ncn(-c2ccc(N3CCN(c4ccc(OC[C@@H]5CO[C@@](Cn6cncn6)(c6ccc(F)cc6F)C5)cc4)CC3)cc2)c1=O` [posaconazole], which “relapse day post washout” value (intracellular T. cruzi) is on record?
Answer: 10 days

Question: What about the “treatment failures in patients” value (T. cruzi) of the same compound?
Answer: 70 – 90%

Question: And the activity against trypomastigotes (T. cruzi trypomastigotes [8])?
Answer: only very weakly active
